How the values were obtained:
PDE7 = experiment: PET imaging in monkeys with [^11C]MTP38; format: in vivo, rhesus monkeys; conditions: after unlabeled MTP38 iv bolus 0.075 mg/kg + infusion 0.3 mg/kg/h
Procedure: Each monkey underwent multiple PET scans with intervals longer than 2 weeks. The monkeys were given an intramuscular injection of 0.04 mg/kg of atropine sulfate at 1.5 h before radioligand injection. They were subsequently anesthetized with an intramuscular injection of ketamine (5 mg/kg) and xylazine (0.5 mg/kg), intubated, and kept anesthetized with 1–2% isoflurane. Heart rate, electrocardiogram, body temperature, blood oxygen saturation level, and end-tidal CO2 were monitored during the PET scan. The monkeys were placed on a bed in a supine position, and the head was fixed at the center of the field of view of a microPET scanner Focus220. A transmission scan was performed for about 20 min using a ^68Ge-^68Ga point source. A 90-min list-mode data acquisition was started simultaneously with intravenous administration of [^11C]MTP38 via a saphenous vein cannula. All list-mode data were sorted into 3D sinograms, which were then Fourier-rebinned into 2D sinograms (frames: 10 s × 6, 30 s × 8, 1 min × 5, 2 min × 10, and 5 min × 12). The images were corrected for attenuation and reconstructed with a filtered back-projection algorithm using a Hanning filter with a cut-off at the Nyquist frequency (0.5 mm^−1).
Along with baseline scans, we carried out blocking PET experiments according to the following pretreatment protocols: (1) unlabeled MTP38 was administered as an intravenous bolus (0.075 mg/kg) at 1 h before radioligand injection followed by continuous infusion at a rate of 0.3 mg/kg/h until the end of the PET scan, and (2) MTP-X (0.3–30 mg/kg) was administered orally at 2 or 6 h before radioligand injection.
PET scans for monkeys at baseline and following pretreatment with unlabeled MTP38, and 3, 10, 30 mg/kg of MTP-X were performed along with arterial blood sampling to obtain a metabolite-corrected input function. In total, 22 arterial blood samples were collected manually with heparinized syringes via a saphenous artery contralateral to the radioligand injection. Sampling was performed at 10, 20, 30, 40, 50, 60, 75, 90, 105, 120, 150, 180, and 210 s and at 4, 5, 10, 20, 30, 45, 60, 75, and 90 min after radioligand injection. Blood samples were then placed on ice and divided into two aliquots, one of which was centrifuged with a refrigerated centrifuge (15,000×g, 3 min, 4 °C) to obtain plasma.
PET images were co-registered onto the individual MR images. ROIs were placed on the prefrontal and medial frontal cortices, hippocampus, amygdala, striatum (caudate + putamen), nucleus accumbens, thalamus, cerebellum (gray matter), and brainstem. TACs in the baseline and blockade experiments were generated for each ROI.
Regional TACs were examined by several analytical methods to calculate the regional total distribution volume (VT), which represents the sum of non-specific and specific radioligand binding. Compartment model (1- or 2-tissue) and Logan’s graphical analyses were employed for describing the radioligand kinetics in the brain. The fractional blood volume was fixed at 0.05. For compartment model analyses, an optimal model was chosen on the basis of Akaike’s information criterion (AIC) and model selection criterion (MSC). For graphical analyses, an equilibration time t* was determined so that by the maximum error from the regression within the linear segment was considered to be 10% for each TAC. Time stability of VT was investigated by truncating the data duration stepwise from 90 min to 30 min. The VT values with or without pretreatment with a blocker were then compared. We also validated the use of the cerebellum as a reference tissue by this comparison, in addition to the autoradiographic findings, in monkey brain slices. The non-displaceable binding potential (BPND) was calculated by the original multilinear reference tissue model (MRTMO). t* was determined in the same manner as Logan’s graphical analysis. […]

Adrenergic α1B = target: T1, Adrenergic α1B (Rattus norvegicus, UniProt P15823); experiment: off-target screen panel; format: binding; conditions: Rat liver, [^3H]Prazosin
T1 construct: purchased Eurofins Panlabs Discovery Services (Taiwan)
T1 sequence (P15823 whole entry): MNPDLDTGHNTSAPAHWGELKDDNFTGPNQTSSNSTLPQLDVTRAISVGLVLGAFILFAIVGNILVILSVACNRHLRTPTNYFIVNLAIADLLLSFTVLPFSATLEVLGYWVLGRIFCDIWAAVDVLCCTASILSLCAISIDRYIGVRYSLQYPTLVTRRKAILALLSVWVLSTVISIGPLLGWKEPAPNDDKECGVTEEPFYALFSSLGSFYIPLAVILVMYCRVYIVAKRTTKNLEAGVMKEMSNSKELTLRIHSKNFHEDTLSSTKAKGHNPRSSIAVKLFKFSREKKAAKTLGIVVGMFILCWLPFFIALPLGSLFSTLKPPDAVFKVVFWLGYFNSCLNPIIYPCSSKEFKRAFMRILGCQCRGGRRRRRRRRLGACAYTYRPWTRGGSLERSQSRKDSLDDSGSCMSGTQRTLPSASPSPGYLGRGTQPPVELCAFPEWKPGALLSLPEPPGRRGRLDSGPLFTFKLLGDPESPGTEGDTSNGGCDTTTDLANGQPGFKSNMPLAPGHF

Adenosine A1 = target: T2, Adenosine A1 (Homo sapiens, UniProt P30542); experiment: off-target screen panel; format: binding; conditions: Human recombinant, [^3H]DPCPX
T2 construct: purchased Eurofins Panlabs Discovery Services (Taiwan)
T2 sequence (P30542 whole entry): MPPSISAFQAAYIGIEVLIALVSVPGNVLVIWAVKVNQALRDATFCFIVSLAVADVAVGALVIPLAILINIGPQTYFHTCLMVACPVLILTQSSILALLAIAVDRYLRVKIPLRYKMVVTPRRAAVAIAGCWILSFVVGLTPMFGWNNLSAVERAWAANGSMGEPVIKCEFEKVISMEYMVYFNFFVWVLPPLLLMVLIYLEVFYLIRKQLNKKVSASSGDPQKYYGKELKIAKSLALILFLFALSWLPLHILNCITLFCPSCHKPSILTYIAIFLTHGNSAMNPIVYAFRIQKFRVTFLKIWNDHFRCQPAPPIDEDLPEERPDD

Glutamate, Kainate = experiment: off-target screen panel; format: binding; conditions: Rat brain cortex, [^3H]Kainic acid
[1] = target: T3, Transporter, Serotonin (5-Hydroxytryptamine) (SERT) (Homo sapiens, UniProt P31645); experiment: off-target screen panel; format: binding; conditions: Human recombinant, [^3H]Paroxetine
T3 construct: purchased Eurofins Panlabs Discovery Services (Taiwan)
T3 sequence (P31645 whole entry): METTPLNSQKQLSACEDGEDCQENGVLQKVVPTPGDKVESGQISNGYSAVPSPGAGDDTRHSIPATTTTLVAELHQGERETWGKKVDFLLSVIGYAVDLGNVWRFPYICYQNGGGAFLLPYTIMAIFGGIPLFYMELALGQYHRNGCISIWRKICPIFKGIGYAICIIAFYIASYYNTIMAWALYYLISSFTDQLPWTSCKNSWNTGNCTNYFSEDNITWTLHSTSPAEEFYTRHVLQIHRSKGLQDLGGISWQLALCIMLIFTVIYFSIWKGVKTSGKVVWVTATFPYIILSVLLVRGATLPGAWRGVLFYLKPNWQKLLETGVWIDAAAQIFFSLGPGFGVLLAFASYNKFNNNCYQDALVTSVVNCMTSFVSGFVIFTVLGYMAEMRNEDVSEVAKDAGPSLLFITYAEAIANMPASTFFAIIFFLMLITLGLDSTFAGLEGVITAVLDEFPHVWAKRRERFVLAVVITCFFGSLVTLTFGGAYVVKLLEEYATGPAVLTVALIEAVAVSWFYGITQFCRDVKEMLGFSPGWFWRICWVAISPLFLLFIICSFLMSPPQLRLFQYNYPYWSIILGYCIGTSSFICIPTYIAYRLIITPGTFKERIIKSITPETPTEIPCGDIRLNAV

Estrogen ERα = target: T4, Estrogen ERα (Homo sapiens, UniProt P03372); experiment: off-target screen panel; format: binding; conditions: Human recombinant, [^3H]Estradiol
T4 construct: purchased Eurofins Panlabs Discovery Services (Taiwan)
T4 sequence (P03372 whole entry): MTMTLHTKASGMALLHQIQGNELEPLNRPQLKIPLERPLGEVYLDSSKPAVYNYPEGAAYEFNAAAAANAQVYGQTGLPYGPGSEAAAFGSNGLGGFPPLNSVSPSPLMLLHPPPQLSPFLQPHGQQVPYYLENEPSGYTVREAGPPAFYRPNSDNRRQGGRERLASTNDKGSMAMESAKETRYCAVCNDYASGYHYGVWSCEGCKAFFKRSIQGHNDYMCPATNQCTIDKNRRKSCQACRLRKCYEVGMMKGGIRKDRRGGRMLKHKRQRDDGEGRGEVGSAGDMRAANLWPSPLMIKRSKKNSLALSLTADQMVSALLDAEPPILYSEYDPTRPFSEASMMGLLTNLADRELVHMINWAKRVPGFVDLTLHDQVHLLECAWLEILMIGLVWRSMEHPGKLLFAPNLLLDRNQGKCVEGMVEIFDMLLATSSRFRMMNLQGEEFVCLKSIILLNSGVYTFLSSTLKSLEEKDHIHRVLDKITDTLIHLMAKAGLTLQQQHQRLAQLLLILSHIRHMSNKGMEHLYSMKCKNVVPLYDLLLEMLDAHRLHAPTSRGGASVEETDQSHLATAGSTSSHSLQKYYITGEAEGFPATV

hERG potassium channel = target: T5, hERG potassium channel (Homo sapiens, UniProt Q12809); experiment: off-target screen panel; format: binding; conditions: human recombinant hERG potassium channel, probe [^3H]Astemizole
T5 construct: purchased Eurofins Panlabs Discovery Services (Taiwan)
T5 sequence (Q12809 whole entry): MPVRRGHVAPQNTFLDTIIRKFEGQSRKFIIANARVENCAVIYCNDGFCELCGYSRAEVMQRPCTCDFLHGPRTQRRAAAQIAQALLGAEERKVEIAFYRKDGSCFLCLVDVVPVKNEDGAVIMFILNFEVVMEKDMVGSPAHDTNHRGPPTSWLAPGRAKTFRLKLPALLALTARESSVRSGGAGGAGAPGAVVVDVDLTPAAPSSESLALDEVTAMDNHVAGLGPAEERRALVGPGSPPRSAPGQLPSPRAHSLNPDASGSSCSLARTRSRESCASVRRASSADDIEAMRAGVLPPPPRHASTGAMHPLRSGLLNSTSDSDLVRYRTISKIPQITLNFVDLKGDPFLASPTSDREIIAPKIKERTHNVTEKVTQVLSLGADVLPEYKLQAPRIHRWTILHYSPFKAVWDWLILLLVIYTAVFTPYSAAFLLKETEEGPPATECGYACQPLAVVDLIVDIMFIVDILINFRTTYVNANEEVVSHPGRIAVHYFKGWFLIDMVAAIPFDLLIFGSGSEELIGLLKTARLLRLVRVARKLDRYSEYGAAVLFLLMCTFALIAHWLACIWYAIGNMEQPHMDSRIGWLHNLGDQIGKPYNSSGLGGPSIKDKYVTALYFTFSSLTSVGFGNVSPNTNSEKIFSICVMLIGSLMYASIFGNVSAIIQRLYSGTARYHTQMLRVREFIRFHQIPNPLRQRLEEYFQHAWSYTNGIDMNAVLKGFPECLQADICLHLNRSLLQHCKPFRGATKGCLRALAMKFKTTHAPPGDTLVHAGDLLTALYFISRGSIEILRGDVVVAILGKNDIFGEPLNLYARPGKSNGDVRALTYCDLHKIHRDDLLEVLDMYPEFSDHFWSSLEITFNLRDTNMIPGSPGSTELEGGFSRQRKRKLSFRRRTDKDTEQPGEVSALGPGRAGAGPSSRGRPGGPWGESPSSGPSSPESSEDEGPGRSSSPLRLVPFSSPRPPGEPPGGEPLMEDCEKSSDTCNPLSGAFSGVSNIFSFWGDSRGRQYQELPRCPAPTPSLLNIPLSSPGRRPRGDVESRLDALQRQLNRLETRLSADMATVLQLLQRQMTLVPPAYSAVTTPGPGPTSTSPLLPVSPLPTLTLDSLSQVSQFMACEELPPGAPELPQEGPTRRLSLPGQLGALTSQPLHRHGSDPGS

[2] = target: T6, Transporter, Dopamine (DAT) (Homo sapiens, UniProt Q01959); experiment: off-target screen panel; format: binding; conditions: Human recombinant, [^125I]RTI-55
T6 construct: purchased Eurofins Panlabs Discovery Services (Taiwan)
T6 sequence (Q01959 whole entry): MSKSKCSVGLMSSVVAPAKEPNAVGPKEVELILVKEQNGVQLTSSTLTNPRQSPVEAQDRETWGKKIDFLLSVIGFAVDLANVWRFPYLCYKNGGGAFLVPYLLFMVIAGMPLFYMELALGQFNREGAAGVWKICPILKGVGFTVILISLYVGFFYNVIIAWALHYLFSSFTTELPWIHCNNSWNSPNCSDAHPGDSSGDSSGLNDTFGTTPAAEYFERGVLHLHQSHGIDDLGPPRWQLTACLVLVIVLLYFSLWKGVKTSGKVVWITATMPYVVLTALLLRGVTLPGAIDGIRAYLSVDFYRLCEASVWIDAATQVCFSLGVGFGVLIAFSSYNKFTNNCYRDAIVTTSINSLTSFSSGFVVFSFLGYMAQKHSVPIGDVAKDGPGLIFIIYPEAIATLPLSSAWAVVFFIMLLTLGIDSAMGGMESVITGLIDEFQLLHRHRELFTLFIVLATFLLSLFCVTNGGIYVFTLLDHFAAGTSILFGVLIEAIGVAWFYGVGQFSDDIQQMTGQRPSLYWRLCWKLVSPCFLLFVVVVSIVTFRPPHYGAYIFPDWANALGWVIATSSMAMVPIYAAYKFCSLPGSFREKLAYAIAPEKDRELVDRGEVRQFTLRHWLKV

In the case of C[C@@H]1CC[C@H](C)N(c2nnc3c(N)ncc(C#N)n23)C1 (relative stereo) [MTP38, 8-amino-3-(2S*,5R*-dimethyl-1-piperidyl)-[1,2,4]triazolo[4,3-a]pyrazine-5-carbonitrile], the “Striatal BPND of [^11C]MTP38” value (PDE7; monkey #1) is reported as 0.157, the “Striatal BPND of [^11C]MTP38” value (PDE7; monkey #2) is reported as 0.017 and the inhibition at 1 µM (Adrenergic α1B) is reported as -3%. The inhibition at 1 µM (Adenosine A1) was -12%, the “Inhibition (%) at 1 μM” value (Glutamate, Kainate) was -2% and the inhibition at 1 µM [1] was -14%. The inhibition at 1 µM (Estrogen ERα) was -1%, the inhibition at 1 µM (hERG potassium channel) was 17% and the inhibition at 1 µM [2] was 22%.
